{"source": "paper PMC11444265", "about": "(European journal of medicinal chemistry, 2021)", "key": {"Acinetobacter spp.": {"test_system": "Acinetobacter spp.", "assay": "MIC in low iron media, 198-member panel of Acinetobacter spp. clinical isolates", "type": "cell-based"}, "P. aeruginosa": {"test_system": "P. aeruginosa", "type": "cell-based, Pseudomonas aeruginosa", "conditions": "for susceptibility of strain: strain AR-BANK#0229"}, "[1]": {"test_system": "Acinetobacter spp. isolates resistant to 2", "assay": "MIC of 2 in combination with efflux pump inhibitors", "type": "cell-based", "conditions": "for direct effect of efflux pump inhibitor on growth: 2 μg/mL for CCCP and 32 μg/mL for PAβN"}, "K. pneumoniae": {"test_system": "K. pneumoniae", "type": "cell-based", "conditions": "Klebsiella pneumoniae"}, "[2]": {"test_system": "carbapenem-resistant A. baumannii (CRAB)", "assay": "MIC in low iron media, 98-member carbapenem-resistant A. baumannii", "type": "cell-based"}, "Caco-2": {"test_system": "Caco-2", "assay": "Caco-2 permeability", "type": "in vitro ADME"}, "[3]": {"assay": "Plasma protein binding, mouse", "type": "in vitro ADME"}, "[4]": {"assay": "Plasma protein binding, human", "type": "in vitro ADME"}, "8 CYP enzymes": {"test_system": "8 CYP enzymes", "assay": "CYP inhibition panel", "type": "in vitro ADME", "conditions": "7 of the 8 CYP enzymes tested, 30 μM"}, "[5]": {"test_system": "human primary hepatocytes", "assay": "Cytotoxicity in human primary hepatocytes", "type": "cell-based", "conditions": "maximal dose of 100 μM"}, "[6]": {"test_system": "6 ion channels, including hERG", "assay": "Ion channel panel", "conditions": "30 μM maximal dose"}, "[7]": {"assay": "Pharmacokinetics in CD-1 mice, 50 mg/kg sc or iv", "type": "in vivo", "conditions": "for Sample Conc (individual mouse plasma): sc 50 mg/kg"}, "[8]": {"test_system": "P. aeruginosa AR-BANK#0229", "assay": "Neutropenic mouse thigh infection model", "type": "in vivo", "conditions": "50 and 100 mg/kg SC q6h, neutropenic mice"}, "[9]": {"test_system": "MDR strains of K. pneumoniae, Acinetobacter spp., and P. aeruginosa", "assay": "MIC50 summary against MDR strains", "type": "cell-based"}, "[10]": {"conditions": "mice; cited from earlier work"}}, "note": "Values joined by “and” are separate entries in the source; they are usually repeats but may differ in a detail not shown here. Identical values can stand only once. “Also recorded” adds a separate entry of the source. Peptide text beside a SMILES is read from it. * marks the point of attachment. βNA = c1ccc2cc(N*)ccc2c1"}
{"molecule": "CC(C)(O/N=C(\\C(=O)N[C@@H]1C(=O)N2C(C(=O)[O-])=C(C[n+]3ccccc3)CS[C@H]12)c1csc(N)n1)C(=O)O", "note": "[Ceftazidime (4), ceftazidime]", "values": [{"measurement": "MIC90", "setting": "Acinetobacter spp.; Acinetobacter", "value": "> 64", "unit": "µg/mL"}]}
{"molecule": "NCC[C@H](O)C(=O)N[C@@H]1C[C@H](N)[C@@H](O[C@H]2O[C@H](CN)[C@@H](O)[C@H](O)[C@H]2O)[C@H](O)[C@H]1O[C@H]1O[C@H](CO)[C@@H](O)[C@H](N)[C@H]1O", "note": "[amikacin]", "values": [{"measurement": "susceptibility of strain", "setting": "P. aeruginosa", "value": "susceptible"}]}
{"molecule": "CNC(C)C1CCC(N)C(OC2C(N)CC(N)C(OC3OCC(C)(O)C(NC)C3O)C2O)O1", "note": "(stereo not shown) [gentamicin]", "values": [{"measurement": "susceptibility of strain", "setting": "P. aeruginosa", "value": "susceptible"}]}
{"molecule": "N#CC(C#N)=NNc1cccc(Cl)c1", "note": "[CCCP, carbonyl cyanide 3-chlorophenylhydrazone, reference compound]", "values": [{"measurement": "direct effect of efflux pump inhibitor on growth", "setting": "[1]", "value": "No significant inhibition effect on growth"}]}
{"molecule": "NC(N)=NCCC[C@H](NC(=O)[C@@H](N)Cc1ccccc1)C(=O)Nc1ccc2ccccc2c1", "note": "[PaβN, phenylalanine-arginine β-naphthylamide, reference compound] (H-Phe-Arg-βNA)", "values": [{"measurement": "direct effect of efflux pump inhibitor on growth", "setting": "[1]", "value": "No significant inhibition effect on growth"}]}
{"molecule": "CC1(C)[C@H](C(=O)O)N2C(=O)C[C@H]2S1(=O)=O", "note": "[Compound 10, sulbactam]", "values": [{"measurement": "isolates with MICs <=16 μg/mL", "setting": "Acinetobacter spp.; 24 isolates with MIC of 2 >=16 μg/mL, 19/24", "value": 79, "unit": "%"}]}
{"molecule": "CC(C)(O/N=C(\\C(=O)N[C@H]1CN2CC(C(=O)NCCN3C(=O)c4cc(O)c(O)cc4C3=O)=C(C(=O)O)N2C1=O)c1nc(N)sc1Cl)C(=O)O", "note": "[Compound 2, (S,Z)-6-(2-(2-amino-5-chlorothiazol-4-yl)-2-(((2-carboxypropan-2-yl)oxy)imino)acetamido)-2-((2-(5,6-dihydroxy-1,3-dioxoisoindolin-2-yl)ethyl)carbamoyl)-5-oxo-6,7-dihydro-1H,5H-pyrazolo[1,2-a]pyrazole-3-carboxylic acid]", "values": [{"measurement": "MIC50", "setting": "P. aeruginosa; Pseudomonas aeruginosa", "value": 500, "unit": "µg/mL"}, {"measurement": "MIC50", "setting": "K. pneumoniae", "value": 1000, "unit": "µg/mL"}, {"measurement": "fraction of strains with MICs >=16 μg/mL", "setting": "Acinetobacter spp.; 24 of 198 tested strains", "value": 12, "unit": "%"}, {"measurement": "MIC90", "setting": "Acinetobacter spp.; Acinetobacter", "value": "> 16", "unit": "µg/mL"}, {"measurement": "share of panel that could be susceptible", "setting": "Acinetobacter spp.; full 198 member panel, 2 with 20 μg/mL coadministration of sulbactam", "value": 98, "unit": "%"}, {"measurement": "susceptibility of panel (isolates susceptible)", "setting": "[2]; 98 CRAB subset, cefiderocol breakpoint <=4 μg/mL applied, 81 out of 98", "value": 83, "unit": "%"}, {"measurement": "fraction of strains with MICs >=16 μg/mL", "setting": "[2]; carbapenem-resistant subgroup, 15 of 98", "value": 15, "unit": "%"}, {"measurement": "Caco-2 permeability", "setting": "Caco-2", "value": "poor Caco-2 permeability"}, {"measurement": "protein-bound", "setting": "[3]", "value": 94, "unit": "%"}, {"measurement": "protein-bound", "setting": "[4]", "value": 88, "unit": "%"}, {"measurement": "CYP inhibition", "setting": "8 CYP enzymes", "value": "does not inhibit"}, {"measurement": "cytotoxicity", "setting": "[5]", "value": "not found"}, {"measurement": "ion channel inhibition", "setting": "[6]", "value": "did not inhibit these channels"}, {"measurement": "plasma level at the 6h time point", "setting": "[7]; CD-1 mice, by both dosing routes (sc and iv)", "value": "> 1000", "unit": "µg/mL"}, {"measurement": "Sample Conc (individual mouse plasma)", "setting": "[7]; 0.167 h", "value": "48689 ng/mL and 44921 ng/mL"}, {"measurement": "Sample Conc (individual mouse plasma)", "setting": "[7]; 0.5 h", "value": "14355 ng/mL and 14094 ng/mL"}, {"measurement": "Sample Conc (individual mouse plasma)", "setting": "[7]; 1 h", "value": "3515 ng/mL and 3186 ng/mL"}, {"measurement": "Sample Conc (individual mouse plasma)", "setting": "[7]; 2 h", "value": 2876, "unit": "ng/mL"}, {"measurement": "Sample Conc (individual mouse plasma)", "setting": "[7]; 4 h", "value": "1534 ng/mL and 739 ng/mL"}, {"measurement": "Sample Conc (individual mouse plasma)", "setting": "[7]; 6 h", "value": "1102 ng/mL and 1425 ng/mL"}, {"measurement": "Sample Conc (individual mouse plasma)", "setting": "[7]; 8 h", "value": "1473 ng/mL and 1126 ng/mL"}, {"measurement": "Sample Conc (individual mouse plasma)", "setting": "[7]; 24 h", "value": "545 ng/mL and 579 ng/mL"}, {"measurement": "efficacy (thigh bacterial burden, CFU)", "setting": "[8]", "value": "dose-dependent efficacy; also recorded: dose-dependent reduction in CFU values"}, {"measurement": "effect of efflux pump inhibitors on MIC of 2", "setting": "[1]; combined with CCCP 2 μg/mL or PAβN 32 μg/mL", "value": "no consistent effect on MIC values"}, {"measurement": "effect of combination with CCCP", "setting": "[1]; isolate PR-452, CCCP 2 μg/mL", "value": "Potential synergistic effects"}, {"measurement": "MIC50", "setting": "[9]", "value": "≤ 0.5", "unit": "µg/mL"}]}
{"molecule": "colistin", "values": [{"measurement": "susceptibility of strain", "setting": "P. aeruginosa", "value": "susceptible"}]}
{"molecule": "C[C@@H](O)[C@H]1C(=O)N2C(C(=O)O)=C(S[C@@H]3CN[C@H](C(=O)N(C)C)C3)[C@H](C)[C@H]12", "note": "[Meropenem (5), meropenem, reference compound]", "values": [{"measurement": "MIC90", "setting": "Acinetobacter spp.; Acinetobacter", "value": "> 64", "unit": "µg/mL"}, {"measurement": "MIC90", "setting": "[2]; Acinetobacter baumannii", "value": "> 64", "unit": "µg/mL"}, {"measurement": "MIC50", "setting": "[9]", "value": "> 8", "unit": "µg/mL"}]}
{"molecule": "C[C@H]1[C@H](NC(=O)/C(=N\\OC(C)(C)C(=O)O)c2csc(N)n2)C(=O)N1S(=O)(=O)O", "note": "[Aztreonam (3), aztreonam]", "values": [{"measurement": "MIC50", "setting": "Acinetobacter spp.; Acinetobacter", "value": "> 32", "unit": "µg/mL"}, {"measurement": "MIC90", "setting": "Acinetobacter spp.; Acinetobacter", "value": "> 32", "unit": "µg/mL"}]}
{"molecule": "CC(C)(O/N=C(\\C(=O)N[C@H]1CN2CC(C(=O)NCCN3C(=O)c4cc(O)c(O)cc4C3=O)=C(C(=O)O)N2C1=O)c1csc(N)n1)C(=O)O", "note": "[Compound 1]", "values": [{"measurement": "efficacy (thigh bacterial burden, CFU)", "setting": "[8]", "value": "not found to have efficacy"}, {"measurement": "plasma concentration at the 6-hour timepoint", "setting": "[10]", "value": "about 0.35 mg/mL"}]}
